Results published in US20140341916A1, “THERAPEUTIC COMBINATIONS AND METHODS OF TREATING MELANOMA” (Genentech, Inc., priority 2011, published 2014).

What was measured:
[1] = system: ETBR transcript; test: ETBR transcript level in melanoma cell lines, Taqman, normalized to RPL19; assay type: cell-based, human; details: 24 h
Method: Melanoma cell lines UACC-257X2.2, A2058, COLO 829, IPC-298 (ATCC) were treated with a BRAF inhibitor drug (“BRAFi”), specifically RG7204 at varying concentrations by adding the appropriate drug volume to cells in culture for 24 h on four-well dishes.
(§1) To determine the effect of BRAFi on ETBR and control ribosomal protein L19 (RPL19) transcript levels, the following experiments were performed. Cells treated with RG7204 for 24 h were harvested from plates by scraping and processed for total RNA using Qiashredder and RNeasy mini kits (79654, 74104 from Qiagen, Valencia, Calif.). Taqman assays were set up using reagents from Applied Biosystems (ABI, Foster City, Calif.) and assayed using 7500 Real Time PCR machine and software from ABI. Primer-probe sets were designed with primers flanking a fluorogenic probe dual labeled with Reporter dye FAM and quencher dye TAMRA.
Melanoma cell lines A2058, COLO 829, SK23-MEL and IPC-298 (ATCC) were treated with a MEK inhibitor drug (“MEKi-973” or “MEKi-623”), at varying concentrations (0 μM, 0.01 μM, 0.1 μM or 1 μM) by adding the appropriate drug volume to cells in culture for 24 h on four-well dishes.
as §1, with “MEKi” for “BRAFi”, “ETBR” for “ETBR and control ribosomal protein L19 (RPL19)”, “performed as described above in Example 3.” for “performed.”, “either MEKi-973” for “RG7204”

[2] = system: Phosphorylated erk; test: PD study, phosphorylated erk in COLO 829 tumors, Western blot; assay type: in vivo, mice; details: 30 mpk BRAFi RG7204
Method: A2058 or COLO 829 tumors were grown to an average size of approximately 200 mm^3, whereupon animals were randomized into groups of 5-6 each. For the BRAFi PD study, an appropriate vehicle control (Klucel LF) or RG7204 at doses of 10 mpk or 30 mpk were administered twice a day for 3 days (FIG. 27A). For the MEKi PD study, an appropriate vehicle control or MEKi-973 at doses of 5 mpk and 10 mpk were administered orally once a day for 3 days (FIG. 27B). Flash frozen tumors harvested at end of study were homogenized and processed for RNA and/or protein. Taqman assays were set up using reagents from Applied Biosystems (ABI, Foster City, Calif.) and assayed using 7500 Real Time PCR machine and software from ABI. Primer-probe sets were designed with primers flanking a fluorogenic probe dual labeled with Reporter dye FAM and quencher dye TAMRA. […]
Phosphorylated erk and total erk protein levels were evaluated in the tumors by western blotting using the following reagents: for detection of proteins: anti-Phospho-p44/42 MAPK (Erk1/2) (Thr202/Tyr204) antibody (9101, Cell Signaling Technology), anti-p44/42 MAPK (Erk1/2) antibody (9102, Cell Signaling Technology) and mouse monoclonal anti-β-Tubulin antibody (556321, BD Pharmingen) as control (FIG. 26).

CCCS(=O)(=O)Nc1ccc(F)c(C(=O)c2c[nH]c3ncc(-c4ccc(Cl)cc4)cc23)c1F [RG7204, propane-1-sulfonic acid {3-[5-(4-chlorophenyl)-1H-pyrrolo[2,3-b]pyridine-3-carbonyl]-2,4-difluoro-phenyl}-amide]
ETBR transcript vs untreated control cells ([1]; A2058 cells): appears to increase the ETBR transcripts | ETBR transcript vs untreated control cells ([1]; COLO 829 cells): appears to increase the ETBR transcripts | ETBR transcript vs untreated control cells ([1]; UACC-257X2.2 cells): appears to increase the ETBR transcripts | Perk in tumors vs control [2]: appears to inhibit Perk in vivo
